From patent US9745291B2, “PRMT5 inhibitors containing a dihydro- or tetrahydroisoquinoline and uses thereof” (Epizyme, Inc., priority 2012, dated 2017)
pEC50, pIC50: −log10 of the molar value.

How the values were obtained:
PRMT5/MEP50 = PRMT5/MEP50 (Homo sapiens (Human), UniProt O14744); assay: PRMT5 Biochemical Assay (PRMT5/MEP50 enzyme assay on peptide substrate, 3H-SAM Flashplate); settings: PRMT5 biochemical assay; read-out: Biochemical IC50
Source text: S-adenosylmethionine (SAM), S-adenosylhomocysteine (SAH), bicine, KCl, Tween20, dimethylsulfoxide (DMSO), bovine skin gelatin (BSG), and Tris(2-carboxyethyl)phosphine hydrochloride solution (TCEP) were purchased from Sigma-Aldrich at the highest level of purity possible. ^3H-SAM was purchase from American Radiolabeled Chemicals with a specific activity of 80 Ci/mmol. 384-well streptavidin Flashplates were purchased from PerkinElmer.
Peptide representative of human histone H4 residues 1-15 was synthesized with a C-terminal linker-affinity tag motif and a C-terminal amide cap by 21st Century Biochemicals. […] The sequence was Ac-[…][K-Biot]-amide (SEQ ID NO.:3).
Full-length human MEP50 (NM_024102) clone was amplified from a human testis cDNA library incorporating a 5′ sequence encoding a 6-histidine tag (MHHHHHH)(SEQ ID NO.:5) fused directly to Arg 2 of MEP50. The amplified genes were sublconed into pENTR/D/TEV (Life Technologies) and subsequently transferred by Gateway™ attL×attR recombination to pDEST8 baculvirus expression vector (Life Technologies).
Recombinant baculovirus and Baculovirus-Infected Insect Cells (BIIC) were generated according to Bac-to-Bac kit instructions (Life Technologies) and Wasilko, 2006, respectively. Protein over-expression was accomplished by infecting exponentially growing Spodoptera frugiperda (SF9) cell culture at 1.2×10^6 cell/ml with a 5000 fold dilution of BIIC stock. Infections were carried out at 27° C. for 72 hours, harvested by centrifugation, and stored at −80° C. for purification.
Flag-PRMT5/6His-MeP50 was eluted with 300 mM Imidazole in the same buffer. […] Reference: Wasilko, D. J. and S. E. Lee: “TIPS: titerless infected-cells preservation and scale-up” Bioprocess J., 5 (2006), pp. 29-32.
General Procedure for PRMT5/MEP50 Enzyme Assays on Peptide Substrates.
The assays were all performed in a buffer consisting of 20 mM Bicine (pH=7.6), 1 mM TCEP, 0.005% BSG, and 0.002% Tween20, prepared on the day of use. Compounds in 100% DMSO (1 ul) were spotted into a polypropylene 384-well V-bottom plates (Greiner) using a Platemate Plus outfitted with a 384-channel head (Thermo Scientific). DMSO (1 ul) was added to Columns 11, 12, 23, 24, rows A-H for the maximum signal control and 1 ul of SAH, a known product and inhibitor of PRMT5/MEP50, was added to columns 11, 12, 23, 24, rows I-P for the minimum signal control. A cocktail (40 ul) containing the PRMT5/MEP50 enzyme and the peptide was added by Multidrop Combi (Thermo-Fisher). The compounds were allowed to incubate with PRMT5/MEP50 for 30 min at 25 degrees Celsius, then a cocktail (10 ul) containing ^3H-SAM was added to initiate the reaction (final volume=51 ul).

[1] = system: symmetric di-methyl arginine in Z-138 cells; assay: Z-138 Methylation Assay (In Cell Western for symmetric di-methyl arginine and DNA content); type: cell-based; settings: Homo sapiens, Z-138, Z-138 cells, read-out: ICW EC50
Source text: [formula] Where top and bottom are the normally allowed to float, but may be fixed at 100 or 0 respectively in a 3-parameter fit. The Hill Coefficient normally allowed to float but may also be fixed at 1 in a 3-parameter fit. Y is the % inhibition and X is the compound concentration. Z-138 Methylation Assay
Z-138 suspension cells were purchased from ATCC (American Type Culture Collection, Manassas, Va.). RPMI/Glutamax medium, penicillin-streptomycin, heat inactivated fetal bovine serum, and D-PBS were purchased from Life Technologies, Grand Island, N.Y., USA. Odyssey blocking buffer, 800CW goat anti-rabbit IgG (H+L) antibody, and Licor Odyssey infrared scanner were purchased from Licor Biosciences, Lincoln, Nebr., USA. Symmetric di-methyl arginine antibody was purchased from EMD Millipore, Billerica, Mass., USA. 16% Paraformaldehyde was purchased from Electron Microscopy Sciences, Hatfield, Pa., USA.
Z-138 suspension cells were maintained in growth medium (RPMI 1640 supplemented with 10% v/v heat inactivated fetal bovine serum and 100 units/mL penicillin-streptomycin) and cultured at 37° C. under 5% CO2.
Cell Treatment, in Cell Western (ICW) for Detection of Symmetric Di-Methyl Arginine and DNA Content.
Z-138 cells were seeded in assay medium at a concentration of 50,000 cells per mL to a 384-well cell culture plate with 50 μL per well. Compound (100 nL) from 384 well source plates was added directly to 384 well cell plate. Plates were incubated at 37° C., 5% CO2 for 96 hours. After four days of incubation, 40 μL of cells from incubated plates were added to poly-D-lysine coated 384 well culture plates (BD Biosciences 356697). Plates were incubated at room temperature for 30 minutes then incubated at 37° C., 5% CO2 for 5 hours. After the incubation, 40 μL per well of 8% paraformaldehyde in PBS (16% paraformaldahyde was diluted to 8% in PBS) was added to each plate and incubated for 30 minutes. Plates were transferred to a Biotek 405 plate washer and washed 5 times with 100 μL per well of wash buffer (1×PBS with 0.1% Triton X-100 (v/v)). Next 30 μL per well of Odyssey blocking buffer were added to each plate and incubated 1 hour at room temperature. Blocking buffer was removed and 20 μL per well of primary antibody was added (symmetric di-methyl arginine diluted 1:100 in Odyssey buffer with 0.1% Tween 20 (v/v)) and plates were incubated overnight (16 hours) at 4° C. Plates were washed 5 times with 100 μL per well of wash buffer. Next 20 μL per well of secondary antibody was added (1:200 800CW goat anti-rabbit IgG (H+L) antibody, 1:1000 DRAQ5 (Biostatus limited) in Odyssey buffer with 0.1% Tween 20 (v/v)) and incubated for 1 hour at room temperature. The plates were washed 5 times with 100 μL per well wash buffer then 1 time with 100 μL per well of water. Plates were allowed to dry at room temperature then imaged on the Licor Odyssey machine which measures integrated intensity at 700 nm and 800 nm wavelengths. Both 700 and 800 channels were scanned.
First, the ratio for each well was determined by:
Each plate included fourteen control wells of DMSO only treatment (minimum inhibition) as well as fourteen control wells for maximum inhibition treated with 3 μM of a reference compound (Background wells). The average of the ratio values for each control type was calculated and used to determine the percent inhibition for each test well in the plate. Reference compound was serially diluted three-fold in DMSO for a total of nine test concentrations, beginning at 3 μM. Percent inhibition was determined and IC50 curves were generated using triplicate wells per concentration of compound. […]

Z-138 cell line = assay: Z-138 Proliferation Assay (Cell Titer Glo, 5 days); type: cell-based; settings: Homo sapiens, Z-138, 120 h, Z-138 cells
Source text: [formula] Z-138 Proliferation Assay
Z-138 suspension cells were purchased from ATCC (American Type Culture Collection, Manassas, Va.). RPMI/Glutamax medium, penicillin-streptomycin, heat inactivated fetal bovine serum were purchased from Life Technologies, Grand Island, N.Y., USA. V-bottom polypropylene 384-well plates were purchased from Greiner Bio-One, Monroe, N.C., USA. Cell culture 384-well white opaque plates were purchased from Perkin Elmer, Waltham, Mass., USA. Cell-Titer Glo® was purchased from Promega Corporation, Madison, Wis., USA. SpectraMax M5 plate reader was purchased from Molecular Devices LLC, Sunnyvale, Calif., USA.
Z-138 suspension cells were maintained in growth medium (RPMI 1640 supplemented with 10% v/v heat inactivated fetal bovine serum and cultured at 37° C. under 5% CO2 Under assay conditions, cells were incubated in assay medium (RPMI 1640 supplemented with 10% v/v heat inactivated fetal bovine serum and 100 units/mL penicillin-streptomycin) at 37° C. under 5% CO2.
For the assessment of the effect of compounds on the proliferation of the Z-138 cell line, exponentially growing cells were plated in 384-well white opaque plates at a density of 10,000 cells/ml in a final volume of 50 μl of assay medium. A compound source plate was prepared by performing triplicate nine-point 3-fold serial dilutions in DMSO, beginning at 10 mM (final top concentration of compound in the assay was 20 μM and the DMSO was 0.2%). A 100 nL aliquot from the compound stock plate was added to its respective well in the cell plate. […] After addition of compounds, assay plates were incubated for 5 days at 37° C., 5% CO2, relative humidity >90%.
Cell viability was measured by quantitation of ATP present in the cell cultures, adding 35 μl of Cell Titer Glo® reagent to the cell plates. Luminescence was read in the SpectraMax M5 microplate reader. The concentration of compound inhibiting cell viability by 50% was determined using a 4-parametric fit of the normalized dose response curves.

Sequence of PRMT5/MEP50 (O14744 other isoform, or with tags, fused parts or gaps): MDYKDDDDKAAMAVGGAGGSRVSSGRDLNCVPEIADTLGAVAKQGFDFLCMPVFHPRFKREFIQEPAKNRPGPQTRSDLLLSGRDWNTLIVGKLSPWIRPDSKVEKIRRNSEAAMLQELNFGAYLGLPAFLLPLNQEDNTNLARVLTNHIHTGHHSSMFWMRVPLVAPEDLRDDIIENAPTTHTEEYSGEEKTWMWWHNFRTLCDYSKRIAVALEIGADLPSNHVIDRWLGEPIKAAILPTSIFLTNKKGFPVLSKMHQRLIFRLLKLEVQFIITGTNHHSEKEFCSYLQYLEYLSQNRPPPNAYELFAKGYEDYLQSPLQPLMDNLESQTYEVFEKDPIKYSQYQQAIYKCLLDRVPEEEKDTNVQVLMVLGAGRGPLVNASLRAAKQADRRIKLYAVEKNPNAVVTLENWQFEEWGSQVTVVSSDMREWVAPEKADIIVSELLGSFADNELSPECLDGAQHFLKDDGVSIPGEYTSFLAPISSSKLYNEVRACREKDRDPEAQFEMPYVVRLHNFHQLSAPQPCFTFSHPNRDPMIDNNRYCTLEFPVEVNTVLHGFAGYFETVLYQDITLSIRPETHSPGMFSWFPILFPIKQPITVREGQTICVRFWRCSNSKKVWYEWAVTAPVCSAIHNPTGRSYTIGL
Sequence of PRMT5/MEP50 (Q9BQA1 other isoform, or with tags, fused parts or gaps partner): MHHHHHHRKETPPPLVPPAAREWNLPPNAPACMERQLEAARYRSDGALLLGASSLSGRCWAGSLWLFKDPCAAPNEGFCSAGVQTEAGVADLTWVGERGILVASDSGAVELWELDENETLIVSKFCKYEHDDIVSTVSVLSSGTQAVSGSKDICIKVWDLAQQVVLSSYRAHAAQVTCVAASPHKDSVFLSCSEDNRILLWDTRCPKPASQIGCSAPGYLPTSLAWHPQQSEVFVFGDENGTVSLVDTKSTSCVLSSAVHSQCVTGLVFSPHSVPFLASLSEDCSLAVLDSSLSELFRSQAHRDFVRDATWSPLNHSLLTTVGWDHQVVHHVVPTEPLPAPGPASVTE

pIC50 (PRMT5/MEP50)	pEC50 [1]	SMILES	pEC50 (Z-138 cell line)
> 7.00	> 7.00	COc1ccc2[nH]c(CCC(=O)NC[C@H](O)CN3CCc4ccccc4C3)nc2c1 [Compound 249]	5.00 to 6.00
> 7.00	> 7.00	O=C(CNc1nc2ccccc2[nH]1)NC[C@H](O)CN1CCc2ccccc2C1 [Compound 239]	5.00 to 6.00
6.00 to 7.00	< 6.00	CC1NCCCC1c1ccccc1OCC(=O)NC[C@@H](O)CN1CCc2ccccc2C1 (stereo partly drawn) [Compound 254]	4.30 to 5.00
> 7.00	< 6.00	CN(CCN)S(=O)(=O)c1ccccc1OCC(=O)NC[C@@H](O)CN1CCc2ccccc2C1 [Compound 198]	< 4.70
> 7.00	> 7.00	CN(CCN1CCCCC1)S(=O)(=O)c1ccccc1OCC(=O)NC[C@@H](O)CN1CCc2ccccc2C1 [Compound 214]	6.00 to 7.00
6.00 to 7.00	< 6.00	O=C(COc1cccc(C(=O)NCCc2ncc[nH]2)c1)NC[C@@H](O)CN1CCc2ccccc2C1 [Compound 267]	< 4.70
6.00 to 7.00	< 6.00	CC(Oc1ccccc1[C@@H]1CCCNC1)C(=O)NC[C@@H](O)CN1CCc2ccccc2C1 (stereo partly drawn) [Compound 204]	4.30 to 5.00
> 7.00	> 7.00	O=C(CCc1nc2cc(F)ccc2[nH]1)NC[C@H](O)CN1CCc2ccccc2C1 [Compound 225]	6.00 to 7.00
> 7.00	> 7.00	O=C(CCc1nc2cc(Cl)ccc2[nH]1)NC[C@H](O)CN1CCc2ccccc2C1 [Compound 226]	6.00 to 7.00
> 7.00	6.00 to 7.00	O=C(COc1ccccc1C1CCCCN1)NC[C@H](O)CN1CCc2ccccc2C1 (stereo partly drawn) [Compound 253]	4.30 to 5.00
> 7.00	< 6.00	NC1CN(S(=O)(=O)c2ccccc2OCC(=O)NC[C@@H](O)CN2CCc3ccccc3C2)CC1O (stereo partly drawn) [Compound 215]	< 4.70
6.00 to 7.00	6.00 to 7.00	O=C(CCc1ncc[nH]1)NC[C@H](O)CN1CCc2ccccc2C1 [Compound 240]	4.30 to 5.00
> 7.00	–	O=C(COc1ccccc1N1CCNCC1)NCC(O)CN1CCc2ccccc2C1 (stereo not drawn) [Compound 79]	5.00 to 6.00
–	6.00 to 7.00	O=C(COc1ccccc1C1CCCNC1)NCC(O)CN1CCc2ccccc2C1 (stereo not drawn) [Compound 117]	5.00 to 6.00
> 7.00	–	O=C(COc1ccccc1-c1cc[nH]n1)NCC(O)CN1CCc2ccccc2C1 (stereo not drawn) [Compound 50, 2-(2-(1H-pyrazol-3-yl)phenoxy)-N-(3-(3,4-dihydroisoquinolin-2(1H)-yl)-2-hydroxypropyl)acetamide]	–
5.00 to 6.00	–	O=C(COc1nc2ccccc2[nH]1)NC[C@@H](O)CN1CCc2ccccc2C1 [Compound 212]	–
–	> 7.00	CN(C)S(=O)(=O)c1c(OCC(=O)NC[C@@H](O)CN2CCc3ccccc3C2)cccc1N1CCNCC1 [Compound 252]	> 7.00

SMILES	pIC50 (PRMT5/MEP50)	pEC50 [1]	pEC50 (Z-138 cell line)
O=C(COc1cccc2cccnc12)NCC(O)CN1CCc2ccccc2C1 (stereo not drawn) [Compound 6, N-(3-(3,4-dihydroisoquinolin-2(1H)-yl)-2-hydroxypropyl)-2-(quinolin-8-yloxy)acetamide]	> 7.00	–	6.00 to 7.00
O=C(COc1cccc2cccnc12)NC[C@@H](O)CN1CCc2ccccc2C1 [Compound 45, (R)—N-(3-(3,4-dihydroisoquinolin-2(1H)-yl)-2-hydroxypropyl)-2-(quinolin-8-yloxy)acetamide]	> 7.00	–	6.00 to 7.00
O=C(COc1cccc2cccnc12)NC[C@H](O)CN1CCc2ccccc2C1 [Compound 44, (S)—N-(3-(3,4-dihydroisoquinolin-2(1H)-yl)-2-hydroxypropyl)-2-(quinolin-8-yloxy)acetamide]	–	6.00 to 7.00	–
CN1CCOc2cccc(OCC(=O)NCC(O)CN3CCc4ccccc4C3)c21 (stereo not drawn) [Compound 81]	> 7.00	–	–
CC(=O)Nc1ccncc1OCC(=O)NCC(O)CN1CCc2ccccc2C1 (stereo not drawn) [Compound 162]	5.00 to 6.00	–	–
Cc1cn(C)c2cccc(OCC(=O)NC[C@H](O)CN3CCc4ccccc4C3)c12 [Compound 163]	> 7.00	–	–
O=C(COc1ccc2c(cnn2C2CCNC2)c1)NCC(O)CN1CCc2ccccc2C1 (stereo not drawn) [Compound 95]	> 7.00	–	–
Cn1ncc2ccc(OCC(=O)NC[C@@H](O)CN3CCc4ccccc4C3)cc21 [Compound 160]	6.00 to 7.00	–	–
